Test results reported in US20050208597A1, “Microarray analysis of post-translational modifications” (The Board of Trustees of the Leland Stanford Junior …, priority 2004, published 2005).

Assays:
Type in all cases: cell-based
β-actin = assay: RPP microarray, phosphorylation-state independent antibody; conditions: PMA treated vs untreated Jurkat T cells
From the text: (§1) FIG. 1. Protein microarray performance characteristics and validation. (A) Four purified antigens spotted in triplicate over six 2-fold dilutions starting at 900 pg per spot and probed with their corresponding antibodies. (B) Quantitative comparison between Western immunoblotting and protein microarray for measuring Hsp70 induction in heat-shocked Jurkat T cells. (C) Detection of changes in phosphorylation in signaling proteins in PMA treated vs. untreated Jurkat T cells. Corresponding immunoblots of the same samples are shown on the right. Antibodies specific for p44/42 MAPK, MEK1/2 and Akt are phosphorylation-state dependent. Antibodies for SLP-76 and β-actin are not dependent on phosphorylation.
(§2) To fabricate the protein microarrays, we used a contact-printing robotic microarrayer to deliver nanoliter (˜6 nl) volumes of whole cell lysates onto nitrocellulose-coated slides. […] In experiments where the number of samples was greater than the number of analytes measured, slides with a single pad capable of holding over 2000 lysate spots were used. […]
(§3) For small-scale experiments, we used a precision 8-pin manual microarrayer system (Microcaster system from Schleicher & Schuell). The resulting features measured approximately 500 μm in diameter. […] Bound primary antibodies were detected with a horseradish peroxidase (HRP)-linked secondary antibody. […]

SLP-76 = assay: as above; conditions: PMA treated vs untreated Jurkat T cells
From the text: as §1, §2, §3

MEK1/2 phosphorylation = assay: RPP microarray, phospho-specific antibody probing of cell lysates
Description: (§4) FIG. 2. Applications of reverse-phase protein microarrays. (A) Kinetics of PLCγ1 (Y783) phosphorylation in Jurkat T cells following stimulation with anti-CD3 (pink triangle), anti-CD28 (green circle), both antibodies (blue squares), or isotype control antibodies (empty squares) over 30 minutes. Left panel: Phosphorylation kinetics unadjusted for total PLCγ1 levels. Middle Panel: Total PLCγ1 levels. Right panel: Ratiometric data on phosphorylation kinetics (phospho-PLCγ1/total PLCγ1). See text for details. (B) Phosphorylation kinetics of four signaling proteins (PLCγ1, Akt, MEK1/2, and p44/42 MAPK) in wildtype Jurkat T cells (black square) and J.gamma1, a mutant Jurkat line deficient in PLCγ1 (empty circle), stimulated with both anti-CD3 and CD28 antibodies. […] Jurkats T cells were stimulated with either anti-CD3 or anti-CD28 antibodies in the presence of one of three kinase inhibitors (see text for details). Lysates were collected after 10 minutes of stimulation, spotted on slides, and probed with four phospho-specific antibodies. Representative spots of p-p44/42 MAPK and p-MEK1/2 are shown for anti-CD3 stimulated cells and p-Akt (Ser473) and p-PDK1 for anti-CD28 treated cells.
(§5) To fabricate the protein microarrays, we used a contact-printing robotic microarrayer to deliver nanoliter (˜6 nl) volumes of whole cell lysates onto nitrocellulose-coated slides. FAST slides (Schleicher and Schuell BioSciences, Dassel, Germany). Depending on the experimental setup, two different formats of FAST slides were used. In experiments where the number of samples was greater than the number of analytes measured, slides with a single pad capable of holding over 2000 lysate spots were used. In our screening experiments where the number of analytes exceeds the number of samples, we used slides carrying eight sectored pads or subarrays for multiplex analysis. Under our current configuration, a maximum of 24 spots can be fitted onto each individual pad (6 mm×6 mm).
(§6) For small-scale experiments, we used a precision 8-pin manual microarrayer system (Microcaster system from Schleicher & Schuell). […] The protein lysates dried within seconds of printing and were tightly bound to the nitrocellulose platform via electrostatic interactions.

[1] = tested on: p44/42 MAPK phosphorylation; assay: as above
Description: as §4, §5, §6

[2] = tested on: Akt (Ser473) phosphorylation; assay: as above
Description: as §4, §5, §6

PDK1 phosphorylation = assay: as above; conditions: Jurkat cells stimulated through CD28 in the presence of the inhibitor; lysates after 10 minutes; one of the 'other 3 kinases' (named)
Description: as §4, §5, §6

[3] = PMA treated vs untreated Jurkat T cells
[4] = Jurkat cells stimulated through CD3 in the presence of the inhibitor, lysates after 10 minutes

## CCCCCCCCCCCCCC(=O)O[C@@H]1[C@@H](C)[C@@]2(O)[C@@H](C=C(CO)C[C@]3(O)C(=O)C(C)=C[C@@H]23)[C@@H]2C(C)(C)[C@]12OC(C)=O [PMA, phorbol 12-myristate 13-acetate]
β-actin
  abundance of β-actin: no changes
SLP-76
  abundance of SLP-76: no changes
MEK1/2 phosphorylation; [3]
  phosphorylation of MEK1/2: rapid phosphorylation
[1]; [3]
  phosphorylation of p44/42 MAPK: rapid phosphorylation
[2]; [3]
  phosphorylation of Akt/PKB: not significantly affected

## N#CC(=C(/N)Sc1ccccc1N)/C(C#N)=C(\N)Sc1ccccc1N [U0126]
MEK1/2 phosphorylation; [4]
  phosphorylation of MEK1/2: had no effect
[1]; [4]
  phosphorylation of p44/42 MAPK: specifically blocked
PDK1 phosphorylation
  phosphorylation of PDK1: had no effect
[2]; Jurkat cells stimulated through CD28 in the presence of the inhibitor, lysates after 10 minutes
  phosphorylation of Akt (Ser473): had no effect
